Test results reported in patent US10954221B2, “GLP-1R agonists and uses thereof” (QILU REGOR THERAPEUTICS INC., priority 2019, dated 2021).

Legend:
[1] = target: T1, GLP1R (Homo sapiens, UniProt P43220); assay: GLP1R cAMP assay (HTRF), HEK293/GLP-1R/CRE/Luc, Clone 4
Target sequence in this assay (P43220 24-463): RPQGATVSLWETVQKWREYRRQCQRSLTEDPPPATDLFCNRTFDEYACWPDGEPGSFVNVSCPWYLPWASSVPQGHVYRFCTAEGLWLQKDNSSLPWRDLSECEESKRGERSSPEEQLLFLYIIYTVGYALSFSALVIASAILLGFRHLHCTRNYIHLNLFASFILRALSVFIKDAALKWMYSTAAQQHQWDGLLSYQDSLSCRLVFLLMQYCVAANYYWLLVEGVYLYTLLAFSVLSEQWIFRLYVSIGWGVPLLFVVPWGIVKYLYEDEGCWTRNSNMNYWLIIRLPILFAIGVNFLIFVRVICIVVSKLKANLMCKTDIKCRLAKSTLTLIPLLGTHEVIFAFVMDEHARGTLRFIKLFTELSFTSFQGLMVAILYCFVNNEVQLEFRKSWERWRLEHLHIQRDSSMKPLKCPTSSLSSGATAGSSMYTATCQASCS
Method: The human GLP-1R coding sequence (NCBI Reference Sequence NM_002062) was subcloned into pcDNA3.1+/Hygro vector (Invitrogen) and transfected into HEK293/CRE/Luc parental cell line. A cell line stably expressing the receptor was isolated.
Varying concentrations of each compound to be tested (in DMSO) were diluted in DMSO to obtain 200× compound working solution first and then 50 nl compounds were added to a white 384-well assay plate (Greiner 784075) with ECHO. The final DMSO concentration was 0.5%.
Cells were removed from cryopreservation, re-suspended in 5 mL of Dulbecco's Phosphate Buffered Saline (DPBS-Sigma Cat #D8537) and centrifuged at 900×g for 5 min at 22° C. The cell pellet was then re-suspended in 1 mL of assay buffer [DPBS with 500 μM IBMX (Sigma #15879) and 0.1% BSA (Sigma #A1933). IBMX and BSA were freshly added on the day of assay]. A 10 μL sample of the cell suspension was counted on an Invitrogen Countess II to determine cell viability and cell count per mL. The remaining cell suspension was then adjusted with assay buffer to deliver 1000 viable cells per well using a Matrix Combi Multidrop reagent dispenser. 10 μL cell suspensions were added to each well
of the assay plate which already contains compound. The plate was sealed and incubated at 37° C. with 5% CO2 for 30 minutes.
Following the 30 minute incubation, 5 μL of labeled d2 cAMP and 5 μL of anti-cAMP antibody (both diluted 1:20 in cell lysis buffer; as described in the manufacturer's assay protocol) were added to each well of the assay plate. The plates were then incubated at room temperature and after 60 minutes, changes in the HTRF signal were read with an Envision multi-label plate reader using excitation of 330 nm and emissions of 615 and 665 nm. Raw data were converted to nM cAMP by interpolation from a cAMP standard curve (as described in the manufacturer's assay protocol) and the percent effect was determined relative to a saturating concentration of the full agonist GLP-17-37 (10 nM) included on each plate. EC50 determinations were made from agonist dose-response curves analyzed with a curve fitting program using a 4-parameter logistic dose response equation.

[2] = target: T1, GLP1R; assay: cAMP assay in CHO cells stably expressing hGLP-1R; type: cell-based; design: expressed in transfected cells; host or cells: CHO cells stably transfected; conditions: CHO cells stably expressing hGLP-1R (Table 2), read-out: CHO cAMP stable EC50
Method: GLP-1R-mediated agonist activity was determined with a cell-based functional assay utilizing an HTRF (Homogeneous Time-Resolved Fluorescence) cAMP detection kit (cAMP Dynamic 2 Assay Kit; CisBio cat #62AM4PEC) that measures cAMP levels in the cell. The method is a competitive immunoassay between native cAMP produced by the cells and exogenous cAMP labeled with the dye d2. The tracer binding is visualized by a mAb anti-cAMP labeled with Cryptate. The specific signal (i.e., energy transfer) is inversely proportional to the concentration of cAMP in either standard or experimental sample.
Following the 30 minute incubation, 5 μL of labeled d2 cAMP and 5 μL of anti-cAMP antibody (both diluted 1:20 in cell lysis buffer; as described in the manufacturer's assay protocol) were added to each well of the assay plate. […] Raw data were converted to nM cAMP by interpolation from a cAMP standard curve (as described in the manufacturer's assay protocol) and the percent effect was determined relative to a saturating concentration of the full agonist GLP-17-37 (10 nM) included on each plate. EC50 determinations were made from agonist dose-response curves analyzed with a curve fitting program using a 4-parameter logistic dose response equation. […]
Target sequence in this assay (P43220 24-463): as above

[3] = target: T1, GLP1R; design: Emax: dose or concentration left out as unconfirmed; conditions: CHO-K1, […], read-out: β-arrestin recruitment Bmax (%)
Target sequence in this assay (P43220 24-463): as above
Target sequence in this assay (P32121 whole entry partner): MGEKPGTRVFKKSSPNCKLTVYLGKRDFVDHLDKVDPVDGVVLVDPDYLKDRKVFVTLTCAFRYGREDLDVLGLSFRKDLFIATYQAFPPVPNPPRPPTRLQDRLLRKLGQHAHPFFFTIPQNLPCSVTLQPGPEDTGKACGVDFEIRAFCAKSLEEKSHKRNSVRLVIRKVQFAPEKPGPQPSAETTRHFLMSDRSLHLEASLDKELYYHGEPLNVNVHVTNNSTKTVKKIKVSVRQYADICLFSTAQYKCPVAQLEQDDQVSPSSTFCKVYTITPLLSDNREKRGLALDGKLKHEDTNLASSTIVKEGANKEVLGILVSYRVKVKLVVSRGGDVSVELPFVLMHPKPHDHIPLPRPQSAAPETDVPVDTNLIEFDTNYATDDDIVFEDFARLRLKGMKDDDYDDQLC

[4] = target: T1, GLP1R; assay: β-Arrestin-mediated GLP1R internalization assay (PathHunter U2OS cells); type: cell-based; design: host or cells: PathHunter engineered U2OS cells; conditions: averaged Bmax where applicable, Percentage of Control GLP-1 (7-37), top 10 μM, 180 min
Excerpt: A similar assay can also be used to assess the extent of signal attenuation due to GLP-1R internalization (the Internalization Assay). In this assay, activated GLP1R Internalization cells were engineered to co-express an untagged GLP1R, Enzyme Acceptor (EA) tagged β-Arrestin, and a ProLink™ (PK) tag localized to the endosomes. Activation of the GLP1R induces β-Arrestin recruitment, which leads to internalization of the Receptor/Arrestin-EA complex in PK-tagged endosomes. This forces complementation of the two β-galactosidase enzyme fragments (EA and PK) to form a functional enzyme that hydrolyzes substrate to generate a chemiluminescent signal.
Frozen cells were quickly thawed and 10 mL of cell plating medium (provided by the kit) was added to thawed cells. Cells were stored in a 37° C. incubator and kept for approximately 48 hours until ready for the assay.
Reference and test compounds were dissolved in 100% DMSO. […] 5 μL of this solution was added to 20 μL cell medium in assay plate for a final top concentration of 10 μM. Plates were incubated at 37° C. for 180 min.
Following 180 min incubation, detection reagents were made up by combining 1 part Galacton Star Substrate with 5 parts Emerald II™ Solution, and 19 parts of PathHunter Cell Assay Buffer, respectively. 12.5 μL detection reagent was added to each well. The plates were then incubated at room temperature for 60 min. Plates were then read on Envision for 0.1 sec/well.
EC50 determinations were made from agonist dose-response curves analyzed with a curve fitting program using a 4-parameter logistic dose response equation.
Target sequence in this assay (P43220 24-463): as the sequence (P43220 24-463) above
Target sequence in this assay (P32121 whole entry partner): as the sequence (P32121 whole entry partner) above

| EC50 [1] [nM] | EC50 [2] [nM] | Emax [3] [%] | β-arrestin internalization Bmax (POC) [4] [POC] | Structure (SMILES) |
| --- | --- | --- | --- | --- |
| < 15 | < 15 | 18.9 | – | N#Cc1ccc(COc2nc(-c3ccc(Cc4nc5ccc(C(=O)O)nc5n4C[C@@H]4CCO4)c(F)c3)ncc2F)c(F)c1 [Compound 263, (S)-2-(4-(4-(4-cyano-2-fluorobenzyloxy)-5-fluoropyrimidin-2-yl)-2-fluorobenzyl)-3-(oxetan-2-ylmethyl)-3H-imidazo[4,5-b]pyridine-5-carboxylic acid] |
| < 15 | < 15 | 26.7 ± 4.76 | 19.9 ± 0.122 | N#Cc1ccc(COc2nc(-c3ccc(Cc4nc5ccc(C(=O)O)cc5n4C[C@@H]4CCO4)c(F)c3)ncc2F)c(F)c1 [Compound 266, (S)-2-(4-(4-((4-cyano-2-fluorobenzyl)oxy)-5-fluoropyrimidin-2-yl)-2-fluorobenzyl)-1-(oxetan-2-ylmethyl)-1H-benzo[d]imidazole-6-carboxylic acid] |
| < 15 | 15 to 150 | – | – | O=C(O)c1ccc2nc(Cc3cc(F)c(-c4ncc(F)c(OCc5ncc(Cl)cc5F)n4)cc3F)n(C[C@@H]3CCO3)c2c1 [Compound 272, (S)-2-(4-(4-((5-chloro-3-fluoropyridin-2-yl)methoxy)-5-fluoropyrimidin-2-yl)-2,5-difluorobenzyl)-1-(oxetan-2-ylmethyl)-1H-benzo[d]imidazole-6-carboxylic acid] |
| < 15 | < 15 | 35.6 ± 3.9 | 26.7 | O=C(O)c1ccc2nc(Cc3cc(F)c(-c4cccc(OCc5ncc(Cl)cc5F)n4)cc3F)n(C[C@@H]3CCO3)c2n1 [Compound 276, (S)-2-(4-(6-((5-chloro-3-fluoropyridin-2-yl)methoxy)pyridin-2-yl)-2,5-difluorobenzyl)-3-(oxetan-2-ylmethyl)-3H-imidazo[4,5-b]pyridine-5-carboxylic acid] |
| < 15 | < 15 | 36.2 ± 5.56 | 36.5 | N#Cc1cnc(COc2cccc(-c3cc(F)c(Cc4nc5ccc(C(=O)O)nc5n4C[C@@H]4CCO4)cc3F)n2)c(F)c1 [Compound 278, (S)-2-(4-(6-((5-cyano-3-fluoropyridin-2-yl)methoxy)pyridin-2-yl)-2,5-difluorobenzyl)-3-(oxetan-2-ylmethyl)-3H-imidazo[4,5-b]pyridine-5-carboxylic acid] |
| < 15 | < 15 | – | – | N#Cc1ccc(COc2cccc(-c3cc(F)c(Cc4nc5ccc(C(=O)O)nc5n4C[C@@H]4CCO4)cc3F)n2)nc1 [Compound 279, (S)-2-(4-(6-((5-cyanopyridin-2-yl)methoxy)pyridin-2-yl)-2,5-difluorobenzyl)-3-(oxetan-2-ylmethyl)-3H-imidazo[4,5-b]pyridine-5-carboxylic acid] |
| < 15 | 15 to 150 | – | – | N#Cc1ccc(COc2nc(-c3cc(F)c(Cc4nc5ccc(C(=O)O)nc5n4C[C@@H]4CCO4)cc3F)ncc2F)nc1 [Compound 280, (S)-2-(4-(4-((5-cyanopyridin-2-yl)methoxy)-5-fluoropyrimidin-2-yl)-2,5-difluorobenzyl)-3-(oxetan-2-ylmethyl)-3H-imidazo[4,5-b]pyridine-5-carboxylic acid] |
| – | 15 to 150 | – | – | O=C(O)c1ccc2nc(Cc3ccc(-c4cccc(OCc5ccc(Cl)cc5F)n4)cc3F)n(C[C@@H]3CCO3)c2n1 [Compound 287, (S)-2-(4-(6-((4-chloro-2-fluorobenzyl)oxy)pyridin-2-yl)-2-fluorobenzyl)-3-(oxetan-2-ylmethyl)-3H-imidazo[4,5-b]pyridine-5-carboxylic acid] |
| < 15 | 15 to 150 | – | – | N#Cc1ccc(COc2cccc(-c3ccc(Cc4nc5ccc(C(=O)O)nc5n4C[C@@H]4CCO4)c(F)c3)n2)nc1 [Compound 288, (S)-2-(4-(6-((5-cyanopyridin-2-yl)methoxy)pyridin-2-yl)-2-fluorobenzyl)-3-(oxetan-2-ylmethyl)-3H-imidazo[4,5-b]pyridine-5-carboxylic acid] |
| < 15 | 15 to 150 | – | – | O=C(O)c1ccc2nc(Cc3ccc(-c4ncc(F)c(OCc5ncc(Cl)cc5F)n4)cc3F)n(C[C@@H]3CCO3)c2n1 [Compound 294, (S)-2-(4-(4-((5-chloro-3-fluoropyridin-2-yl)methoxy)-5-fluoropyrimidin-2-yl)-2-fluorobenzyl)-3-(oxetan-2-ylmethyl)-3H-imidazo[4,5-b]pyridine-5-carboxylic acid] |
| < 15 | < 15 | – | – | O=C(O)c1ccc2nc(Cc3cc(F)c(-c4cccc(OCc5ccc(Cl)cn5)n4)cc3F)n(C[C@@H]3CCO3)c2n1 [Compound 296, (S)-2-(4-(6-((5-chloropyridin-2-yl)methoxy)pyridin-2-yl)-2,5-difluorobenzyl)-3-(oxetan-2-ylmethyl)-3H-imidazo[4,5-b]pyridine-5-carboxylic acid] |
| < 15 | 15 to 150 | – | – | O=C(O)c1ccc2nc(Cc3cc(F)c(-c4cccc(OCc5ccc(F)cn5)n4)cc3F)n(C[C@@H]3CCO3)c2n1 [Compound 298, (S)-2-(2,5-difluoro-4-(6-((5-fluoropyridin-2-yl)methoxy)pyridin-2-yl)benzyl)-3-(oxetan-2-ylmethy)-3H-imidazo[4,5-b]pyridine-5-carboxylic acid] |
| < 15 | 15 to 150 | – | – | O=C(O)c1ccc2nc(Cc3cc(F)c(-c4ncc(F)c(OCc5ccc(Cl)cn5)n4)cc3F)n(C[C@@H]3CCO3)c2n1 [Compound 300, (S)-2-(4-(4-((5-chloropyridin-2-yl)methoxy)-5-fluoropyrimidin-2-yl)-2,5-difluorobenzyl)-3-(oxetan-2-ylmethyl)-3H-imidazo[4,5-b]pyridine-5-carboxylic acid] |
| < 15 | 15 to 150 | – | – | N#Cc1cnc(COc2nc(-c3ccc(Cc4nc5ccc(C(=O)O)nc5n4C[C@@H]4CCO4)c(F)c3)ncc2F)c(F)c1 [Compound 301, (S)-2-(4-(4-((5-cyano-3-fluoropyridin-2-yl)methoxy)-5-fluoropyrimidin-2-yl)-2-fluorobenzyl)-3-(oxetan-2-ylmethyl)-3H-imidazo[4,5-b]pyridine-5-carboxylic acid] |
| < 15 | – | 62.8 ± 4.09 | 48.8 ± 6.11 | O=C(O)c1ccc2nc(Cc3ccc(-c4cccc(OCc5ccc(Cl)cc5F)n4)c(F)c3)n(C[C@@H]3CCO3)c2c1F [Compound 308, (S)-2-(4-(6-((4-chloro-2-fluorobenzyl)oxy)pyridin-2-yl)-3-fluorobenzyl)-7-fluoro-1-(oxetan-2-ylmethyl)-1H-benzo[d]imidazole-6-carboxylic acid] |
| < 15 | < 15 | 37.8 | – | N#Cc1ccc(COc2cccc(-c3ccc(Cc4nc5ccc(C(=O)O)c(F)c5n4C[C@@H]4CCO4)c(F)c3)n2)c(F)c1 [Compound 310, (S)-2-(4-(6-((4-cyano-2-fluorobenzyl)oxy)pyridin-2-yl)-2-fluorobenzyl)-7-fluoro-1-(oxetan-2-ylmethyl)-1H-benzo[d]imidazole-6-carboxylic acid] |
| < 15 | 15 to 150 | – | – | N#Cc1ccc(COc2cccc(-c3ccn(Cc4nc5ccc(C(=O)O)c(F)c5n4C[C@@H]4CCO4)c(=O)c3)n2)c(F)c1 [Compound 322, (S)-2-((6-((4-cyano-2-fluorobenzyl)oxy)-2′-oxo-[2,4′-bipyridin]-1′(2′H)-yl)methyl)-7-fluoro-1-(oxetan-2-ylmethyl)-1H-benzo[d]imidazole-6-carboxylic acid] |
| 15 to 150 | > 1000 | – | – | O=C(O)c1ccc2nn(Cc3ccc(-c4cccc(OCc5ccc(Cl)cc5F)n4)cc3F)c(CC3CCO3)c2c1 (centres unmarked) [Compound 326, 2-(4-(6-(4-chloro-2-fluorobenzyloxy)pyridin-2-yl)-2-fluorobenzyl)-3-(oxetan-2-ylmethyl)-2H-indazole-S-carboxylic acid] |
